Among the test systems are 786-0 renal; A549 NSCLC; HL-60(TB) leukemia; HT29 colon; KM12 colon; NCI-H23 lung; SF-295 CNS; SNB-19 CNS; SNB-75 CNS; SW-620 colon.
What all share (experiment): NCI anticancer screen, dose series, 48 h

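48-hour exposure; five concentrations; linearly interpolated endpoints. GI50: concentration for 50% inhibition of growth. The concentration for full growth arrest is given as TGI.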 Where only a bound is given, the exact number is not on record here.

For `COc1ccc2[nH]c3c4[nH]c5ccc(OC)cc5c4c4c(c3c2c1)C(=O)NC4=O`, the GI50 with 786-0 renal is over 12.9 µM; in the assay with A549 NSCLC, over 9.75 µM; in the assay with HL-60(TB) leukemia, over 21.1 µM; in the assay with HT29 colon it was over 25 µM; in the assay with KM12 colon, 1.76 µM; with NCI-H23 lung, over 14.4 µM. Also, the GI50 is over 15.7 µM with SF-295 CNS, over 25 µM in the assay on SNB-19 CNS, over 13.2 µM in the assay with SNB-75 CNS and over 25 µM in the assay with SW-620 colon. For the same molecule, the TGI with 786-0 renal, with A549 NSCLC, with HL-60(TB) leukemia, in the assay on HT29 colon, with KM12 colon and in the assay with NCI-H23 lung was over 25 µM each time. Besides, the TGI in the assay on SF-295 CNS, with SNB-19 CNS, in the assay on SNB-75 CNS and in the assay with SW-620 colon was over 25 µM throughout.

As to `O=C1C2C3C=C4c5ccccc5N(c5ccccc5)C4(C2C(=O)N1c1ccc([N+](=O)[O-])cc1)[C@H]1C(=O)N(c2ccc([N+](=O)[O-])cc2)C(=O)[C@@H]31` (stereo partly drawn), the TGI in the assay on 786-0 renal, in the assay with A549 NSCLC, in the assay with HL-60(TB) leukemia, in the assay with HT29 colon, in the assay on KM12 colon and in the assay with NCI-H23 lung was over 100 µM throughout. The TGI with SF-295 CNS, in the assay with SNB-19 CNS, in the assay on SNB-75 CNS and in the assay on SW-620 colon was over 100 µM throughout.

`Nc1nc(Nc2cccnc2)sc1C(=O)c1ccccc1F`: the GI50 is 3.18 µM in the assay with 786-0 renal; 3.16 µM with A549 NSCLC; 2.09 µM in the assay with HL-60(TB) leukemia; 2.96 µM in the assay on HT29 colon; 3.06 µM in the assay with KM12 colon; 2.55 µM in the assay with NCI-H23 lung. The GI50 with SF-295 CNS was 2.69 µM; with SNB-19 CNS, 2.65 µM; with SNB-75 CNS, 0.58 µM; in the assay on SW-620 colon, 3.5 µM. Besides, the TGI in the assay with 786-0 renal was over 34.9 µM; with A549 NSCLC, over 100 µM; in the assay with HL-60(TB) leukemia it was 4.81 µM; in the assay with HT29 colon it was 31.2 µM; in the assay with KM12 colon, 32.5 µM; in the assay on NCI-H23 lung, 12.4 µM. The TGI was over 26.9 µM in the assay on SF-295 CNS, over 23.5 µM in the assay on SNB-19 CNS, 4.74 µM in the assay with SNB-75 CNS and over 42.6 µM in the assay on SW-620 colon.

In the case of `Clc1cc(Cl)c2ns[s+]c2c1Cl`, the TGI in the assay on 786-0 renal is over 100 µM; in the assay with A549 NSCLC, over 100 µM; in the assay with HL-60(TB) leukemia, over 100 µM; with HT29 colon it was over 100 µM; in the assay on KM12 colon, over 100 µM; in the assay on NCI-H23 lung it was 85.2 µM. Also, the TGI in the assay with SF-295 CNS, with SNB-19 CNS, with SNB-75 CNS and in the assay with SW-620 colon was over 100 µM in each case.

In the case of `CCc1nc(N)nc(N)c1-c1ccc(NC)c([N+](=O)[O-])c1`, the TGI is over 100 µM with 786-0 renal; over 100 µM with A549 NSCLC; over 51.8 µM in the assay on HL-60(TB) leukemia; 33.7 µM with HT29 colon; over 100 µM with KM12 colon; over 100 µM in the assay on NCI-H23 lung. In addition, the TGI with SF-295 CNS is over 94.7 µM; in the assay with SNB-19 CNS, over 80.4 µM; with SNB-75 CNS, over 100 µM; in the assay with SW-620 colon, over 100 µM.

`CCOC(=O)C1SC(=Nc2ccc(C)c(C)c2)N=C1C` (stereo not drawn): the TGI in the assay on 786-0 renal, in the assay on A549 NSCLC, with HL-60(TB) leukemia, in the assay on HT29 colon, with KM12 colon and with NCI-H23 lung was over 100 µM throughout. Moreover, the TGI in the assay on SF-295 CNS, with SNB-19 CNS, in the assay with SNB-75 CNS and with SW-620 colon was over 100 µM each time.

Turning to `COc1ccc(/C=C/c2c(C(=O)/C=C/c3ccccc3)c(C)nc3ccccc23)cc1`, the GI50 in the assay on 786-0 renal was 1.76 µM; with HL-60(TB) leukemia, 2.3 µM; in the assay on HT29 colon it was 2.4 µM; with KM12 colon it was 1.77 µM; with NCI-H23 lung, 1.73 µM; in the assay on SF-295 CNS, 2.62 µM. The GI50 in the assay on SNB-19 CNS is 1.66 µM; with SNB-75 CNS it was 1.46 µM; with SW-620 colon, 2.12 µM. Moreover, the TGI was 3.31 µM in the assay with 786-0 renal; 5.79 µM with HL-60(TB) leukemia; over 100 µM with HT29 colon; 3.52 µM with KM12 colon; 4.19 µM with NCI-H23 lung; 7.46 µM with SF-295 CNS. Moreover, the TGI was 3.07 µM in the assay with SNB-19 CNS, 4.44 µM in the assay with SNB-75 CNS and 6.34 µM in the assay on SW-620 colon.

Take `CN(C)CCNc1ccc(CO)c2oc3ccc(O)cc3c(=O)c12`: the TGI is 46.1 µM with 786-0 renal; 63.9 µM with A549 NSCLC; 30.9 µM in the assay with HL-60(TB) leukemia; 44.9 µM in the assay on HT29 colon; 40 µM in the assay with KM12 colon; 24.6 µM with NCI-H23 lung. The TGI in the assay with SF-295 CNS came to 41.5 µM; with SNB-19 CNS, 55.9 µM; in the assay on SNB-75 CNS, 47.1 µM; in the assay on SW-620 colon, 61.3 µM.

Turning to `O=C(/C=C/c1ccc(Cl)c(Cl)c1)c1ccc2ccccc2c1`, the TGI in the assay on 786-0 renal, in the assay with A549 NSCLC, in the assay with HL-60(TB) leukemia, in the assay on HT29 colon, in the assay on KM12 colon and in the assay on NCI-H23 lung was over 100 µM each time. In addition, the TGI with SF-295 CNS, with SNB-19 CNS, with SNB-75 CNS and with SW-620 colon was over 100 µM each time.

Regarding `NC(=O)c1cc(Cl)ccc1NC(=O)/C=C/c1ccccc1`, the GI50 in the assay on 786-0 renal is 3.86 µM; with A549 NSCLC, 4.18 µM; in the assay on HL-60(TB) leukemia it was 1.28 µM; with HT29 colon, 2.22 µM; in the assay with KM12 colon it was 2.19 µM; in the assay with NCI-H23 lung it was 5.62 µM. Also, the GI50 with SF-295 CNS was 2.58 µM; in the assay with SNB-19 CNS, 4.47 µM; with SNB-75 CNS, 3.16 µM; in the assay on SW-620 colon, 2.36 µM. Besides, the TGI was over 34.8 µM in the assay with 786-0 renal; over 100 µM with A549 NSCLC; 4.4 µM with HL-60(TB) leukemia; over 100 µM with HT29 colon; over 100 µM in the assay on KM12 colon; over 100 µM in the assay with NCI-H23 lung. Moreover, the TGI with SF-295 CNS was over 25.6 µM; with SNB-19 CNS, over 55.6 µM; in the assay with SNB-75 CNS it was over 23.7 µM; with SW-620 colon it was over 100 µM.

Values taken from PubChem BioAssay (NCI).
